pIC50: −log10 of the molar value. Structures can show the parent of a compound that is named as a salt.
Biological target: T1, human recombinant DPP-IV (Homo sapiens, UniProt P27487)
T1 construct: purchased R&D Systems, USA (or produced in-house)
Assay: Inhibition of human recombinant DPP-IV (Gly-Pro-AMC hydrolysis, fluorometric)
Format: biochemical
Conditions: for % inhibition at 10 nM: compound 10 nM, relative to vehicle controls; for pIC50: human recombinant DPP-IV, 50 μM Gly-Pro-AMC, 30 min at 30° C.
Experimental: Inhibition of Human Recombinant DPP-IV
The proteolytic activity of human recombinant DPP-IV was determined by following the hydrolysis of Gly-Pro-7-amino-4-methylcoumarin (Gly-Pro-AMC) and the fluorometric quantitation of the liberated AMC. Assays were routinely carried out in 96-well flat-bottom black microwell plates. The reaction mixture (100 μl) contained 10 ng of human recombinant DPP-IV enzyme (produced in-house or procured from R&D Systems, USA) in the assay buffer (25 mM Tris-HCl, pH 7.4, 140 mM NaCl, 10 mM KCl and 0.1 mg/ml BSA) and 50 μM Gly-Pro-AMC. After incubation of assay plates at 30° C. for 30 min, the hydrolysis of Gly-Pro-AMC was monitored in a fluorescence microplate reader (Molecular Devices SpectraMax M5), with excitation and emission wavelengths set at 360 nm and 460 nm, respectively.
The inhibition of DPP-IV activity by test compounds was routinely performed by preincubating the enzyme with test compound (10 and 100 nM for primary screening and 8 concentrations from 0.1 to 1000 nM for the dose-response study) or vehicle (0.01% DMSO) for 15 min at 30° C., in a total volume of 90 μl. Test compounds were dissolved in DMSO at a concentration of 10 mM and serially diluted further in assay buffer. The enzyme reaction was initiated by the addition of Gly-Pro-AMC, followed by incubation of assay plates for 30 min at 30° C. and the liberated AMC was measured as described above. A known inhibitor of DPP-IV (positive control) was always included in the assay. Test compounds at various concentrations were always evaluated in duplicate, along with substrate blanks, vehicle controls and positive controls.
The results are expressed as percent inhibition of the enzyme activity relative to vehicle controls. Dose-response studies were conducted for those compounds exerting ≧50% inhibition of activity at 10 nM in primary screening. IC50, defined as the inhibitor concentration which caused a 50% decrease of the activity under assay conditions, was computed using GraphPad Prism software, version 5.0.
The DPP-IV inhibition data (expressed either as IC50 in nanomolar or percent inhibition at a particular compound concentration) is presented in Table 1.

T1 sequence (P27487 whole entry): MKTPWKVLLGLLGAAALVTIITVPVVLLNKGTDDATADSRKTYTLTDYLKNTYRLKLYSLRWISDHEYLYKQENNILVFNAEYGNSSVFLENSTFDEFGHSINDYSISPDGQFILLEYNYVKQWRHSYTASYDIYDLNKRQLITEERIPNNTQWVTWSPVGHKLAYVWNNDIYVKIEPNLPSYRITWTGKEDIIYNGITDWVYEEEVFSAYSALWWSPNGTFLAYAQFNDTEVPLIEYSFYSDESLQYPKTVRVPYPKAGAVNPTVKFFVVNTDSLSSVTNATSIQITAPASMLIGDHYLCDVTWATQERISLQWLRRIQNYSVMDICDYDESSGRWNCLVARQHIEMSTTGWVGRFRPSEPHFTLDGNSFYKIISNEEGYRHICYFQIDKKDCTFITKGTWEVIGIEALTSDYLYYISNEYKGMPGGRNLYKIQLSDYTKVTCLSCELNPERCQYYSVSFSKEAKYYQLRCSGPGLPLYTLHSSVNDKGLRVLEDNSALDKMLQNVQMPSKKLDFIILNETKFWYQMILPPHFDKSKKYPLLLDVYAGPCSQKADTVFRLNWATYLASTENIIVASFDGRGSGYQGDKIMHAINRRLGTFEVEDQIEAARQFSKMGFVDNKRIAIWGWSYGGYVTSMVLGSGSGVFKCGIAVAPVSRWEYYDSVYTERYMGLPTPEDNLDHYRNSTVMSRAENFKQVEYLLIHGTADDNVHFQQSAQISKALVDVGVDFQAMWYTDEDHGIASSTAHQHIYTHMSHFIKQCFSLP

Row | Compound | % inhibition at 10 nM [% inhibition at 10 nM] | pIC50 | also measured
1 | N#C[C@@H]1C[C@@H]2C[C@@H]2N1C(=O)[C@@H](N)C1CC2CCC(C1)N2CCOCc1ccccc1.O=C(O)C(F)(F)F (stereo partly drawn) [Compound 50, (1S,3S,5S)-2-{(2S)-2-Amino-2-[8-(benzyloxy-ethyl)-8-aza-bicyclo[3.2.1]oct-3-yl]-exo-ethanoyl}-2-azabicyclo[3.1.0]hexane-3-carbonitrile trifluoroacetic acid salt] | 21 | – | –
2 | N#Cc1ccc(N2C3CCC2CC([C@H](N)C(=O)N2[C@H](C#N)C[C@@H]4C[C@@H]42)C3)nc1 (stereo partly drawn) [Compound 51, (1S,3S,5S)-2-{(2S)-2-Amino-2-[8-(5-cyanopyridine-2-yl)-8-aza-bicyclo[3.2.1]oct-3-yl]-exo-ethanoyl}-2-azabicyclo[3.1.0]hexane-3-carbonitrile trifluoroacetic acid salt] | – | 8.02 | –
3 | N#Cc1ccc(N2C3CCC2CC([C@H](N)C(=O)N2[C@H](C#N)C[C@@H]4C[C@@H]42)C3)cc1.O=C(O)C(F)(F)F (stereo partly drawn) [Compound 52, (1S,3S,5S)-2-{(2S)-2-Amino-2-[8-(4-cyano-phenyl)-8-aza-bicyclo[3.2.1]oct-3-yl]-exo-ethanoyl}-2-azabicyclo[3.1.0]hexane-3-carbonitrile trifluoro acetic acid salt] | 25 | – | –
4 | CS(=O)(=O)c1ccc(N2C3CCC2CC([C@H](N)C(=O)N2[C@H](C#N)C[C@@H]4C[C@@H]42)C3)cc1 (stereo partly drawn) [Compound 53, (1S,3S,5S)-2-{(2S)-2-Amino-2-[8-(4-methanesulfonylphenyl)-8-aza-bicyclo[3.2.1]oct-3-yl]-exo-ethanoyl}-2-azabicyclo[3.1.0]hexane-3-carbonitrile trifluoroacetic acid salt] | – | 7.71 | –
5 | N#C[C@@H]1C[C@@H]2C[C@@H]2N1C(=O)[C@@H](N)C1CC2CCC(C1)N2C(=O)Cc1ccncc1 (stereo partly drawn) [Compound 54, (1S,3S,5S)-2-{(2S)-2-Amino-2-[8-(2-pyridin-4-yl-acetyl)-8-aza-bicyclo[3.2.1]oct-3-yl]-exo-ethanoyl}-2-azabicyclo[3.1.0]hexane-3-carbonitrile di trifluoroacetic acid salt] | – | 8.48 | –
6 | N#C[C@@H]1C[C@@H]2C[C@@H]2N1C(=O)[C@@H](N)C1CC2CCC(C1)N2Cc1ccncc1.O=C(O)C(F)(F)F (stereo partly drawn) [Compound 55, (1S,3S,5S)-2-{(2S)-2-Amino-2-[8-(pyridin-4-yl-methyl)-8-aza-bicyclo[3.2.1]oct-3-yl]-exo-ethanoyl}-2-azabicyclo[3.1.0]hexane-3-carbonitrile trifluoroacetic acid salt] | 45 | – | –
7 | CS(=O)(=O)N1C2CCC1CC([C@H](N)C(=O)N1[C@H](C#N)C[C@@H]3C[C@@H]31)C2 (stereo partly drawn) [Compound 56, (1S,3S,5S)-2-{(2S)-2-Amino-2-[8-(methanesulfonyl)-8-aza-bicyclo[3.2.1]oct-3-yl]-exo-ethanoyl}-2-azabicyclo[3.1.0]hexane-3-carbonitrile trifluoroacetic acid salt] | – | 8.38 | –
8 | N#C[C@@H]1C[C@@H]2C[C@@H]2N1C(=O)[C@@H](N)C1CC2CCC(C1)N2S(=O)(=O)c1cccs1 (stereo partly drawn) [Compound 57, (1S,3S,5S)-2-{(2S)-2-Amino-2-[8-(thiophene-2-sulfonyl)-8-aza-bicyclo[3.2.1]oct-3-yl]-exo-ethanoyl}-2-azabicyclo[3.1.0]hexane-3-carbonitrile trifluoroacetic acid salt] | – | 8.10 | –
9 | N#C[C@@H]1C[C@@H]2C[C@@H]2N1C(=O)[C@@H](N)C1CC2CCC(C1)N2C(=O)C1CCCCC1.O=C(O)C(F)(F)F (stereo partly drawn) [Compound 58, (1S,3S,5S)-2-{(2S)-2-Amino-2-[8-(cyclohexane-carbonyl)-8-aza-bicyclo[3.2.1]oct-3-yl]-exo-ethanoyl}-2-azabicyclo[3.1.0]hexane-3-carbonitrile trifluoroacetic acid salt] | 31 | – | –
10 | CCC(CC)N1C2CCC1CC([C@H](N)C(=O)N1[C@H](C#N)C[C@@H]3C[C@@H]31)C2.O=C(O)C(F)(F)F (stereo partly drawn) [Compound 59, (1S,3S,5S)-2-{(2S)-2-Amino-2-[8-(1-ethyl-propyl)-8-aza-bicyclo[3.2.1]oct-3-yl]-exo-ethanoyl}-2-azabicyclo[3.1.0]hexane-3-carbonitrile trifluoroacetic acid salt] | 34 | – | –
11 | N#C[C@@H]1C[C@@H]2C[C@@H]2N1C(=O)[C@@H](N)C1CC2CCC(C1)N2C1CCCCC1.O=C(O)C(F)(F)F (stereo partly drawn) [Compound 60, (1S,3S,5S)-2-{(2S)-2-Amino-2-(8-cyclohexyl-8-aza-bicyclo[3.2.1]oct-3-yl)-exo-ethanoyl}-2-azabicyclo[3.1.0]hexane-3-carbonitrile trifluoroacetic acid salt] | 10 | – | –
12 | N#C[C@@H]1C[C@@H]2C[C@@H]2N1C(=O)[C@@H](N)C1CC2CCC(C1)N2C(=O)NS(=O)(=O)c1ccc(Cl)cc1.O=C(O)C(F)(F)F (stereo partly drawn) [Compound 61, (1S,3S,5S)-2-{(2S)-2-Amino-2-[8-(4-chlorophenylsulfonylcarbamoyl)-8-aza-bicyclo[3.2.1]oct-3-yl]-exo-ethanoyl}-2-azabicyclo[3.1.0]hexane-3-carbonitrile trifluoroacetic acid salt] | 9 | – | –
13 | N[C@H](C(=O)N1CC(F)C1)C1CC2CCC(C1)N2C(=O)c1ccncc1F (stereo partly drawn) [Compound 62, {(2S)-2-Amino-2-[8-(3-fluoropyridine-4-carbonyl)-8-aza-bicyclo[3.2.1]-oct-3-yl]-exo-ethanoyl}-3-fluoroazetidine trifluoroacetic acid salt] | – | – | inhibition at 0.01 µM (read-out: % inhibition at 10 nM): 12%
14 | C#C[C@H]1CC[C@@H](C#N)N1C(=O)[C@@H](N)C1CC2CCC(C1)N2C(=O)c1ccc(C(F)(F)F)cc1 (stereo partly drawn) [Compound 63, (2S,5R)-1-{(2S)-2-Amino-2-[8-(4-trifluoromethyl-benzoyl)-8-aza-bicyclo[3.2.1]oct-3-yl]-exo-ethanoyl}-5-ethynyl-pyrrolidin-2-carbonitrile trifluoro acetic acid salt] | – | 7.81 | –
15 | C#C[C@H]1CC[C@@H](C#N)N1C(=O)[C@@H](N)C1CC2CCC(C1)N2C(=O)c1ccncc1 (stereo partly drawn) [Compound 64, (2S,5R)-1-{(2S)-2-Amino-2-[8-(pyridin-4-carbonyl)-8-aza-bicyclo[3.2.1]oct-3-yl]-exo-ethanoyl}-5-ethynyl-pyrrolidin-2-carbonitrile di trifluoro acetic acid salt] | – | 7.96 | –
16 | C#C[C@H]1CC[C@@H](C#N)N1C(=O)[C@@H](N)C1CC2CCC(C1)N2C(=O)c1ccncc1F (stereo partly drawn) [Compound 65, (2S,5R)-1-{(2S)-2-Amino-2-[8-(3-fluoropyridin-4-carbonyl)-8-aza-bicyclo[3.2.1]oct-3-yl]-exo-ethanoyl}-5-ethynyl-pyrrolidin-2-carbonitrile trifluoroacetic acid salt] | – | 8.15 | –
17 | COc1ccccc1NC(=S)N1C2CCC1CC([C@H](N)C(=O)N1[C@H](C#N)C[C@@H]3C[C@@H]31)C2.O=C(O)C(F)(F)F (stereo partly drawn) [Compound 68, (1S,3S,5S)-2-{(2S)-2-Amino-2-[8-(2-methoxyphenylthiocarbamoyl)-8-aza-bicyclo[3.2.1]oct-3-yl]-exo-ethanoyl}-2-azabicyclo[3.1.0]-hexane-3-carbonitrile trifluoroacetic acid salt] | 16 | – | –
